Biological target: T1, cGAMP binding domain of wild-type (GRR) human STING, residues 155-341 (Homo sapiens, UniProt Q86WV6, H232R)
T1 construct: His-TEV-hSTING (WT); TEV protease cleavage site (N); made in house; host or cells: E. coli BL21 DE3
Assay: Increase of stability of STING protein against thermal denaturation, Differential Scanning Fluorimetry (DSF)
Method: Dye fluorescence is quenched in aqueous environment and increases upon association of the dye with the hydrophobic parts of the unfolding protein. […] The inflection point of the curve represents the “melting” temperature of the protein (Tm) which is calculated numerically using the Boltzmann equation.
Method: The thermal stability of the STING protein was measured using a specific expression construct of the cGAMP binding domain of wild-type (GRR) human STING comprising residues 155-341 and a N-terminal 8×His-tag (SEQ ID NO: 3) in assay buffer containing 20 mM Tris, 150 mM NaCl at pH7.5.
The assay uses Hard-Shell® PCR Plates 384-Well CLR/WHT (Catalog #HSP3805, BIO-RAD), Microseal® ‘B’ Adhesive Seals for PCR Plates (Catalog #MSB-1001, BIO-RAD) and was run on a CFX384 Real-Time System (Bio-Rad).
A DMSO stock solution of SYPRO orange (SIGMA S5692-500UL) was prepared.
Compound stock solutions (10 mM in DMSO) were diluted 1:2 in DMSO to an intermediate compound concentration of 5 mM and then further diluted 1:40 in assay buffer resulting in a compound concentration of 125 μM and 2.5% DMSO.
Fluorescent dye stock solution (5000×SYPRO Orange) was then mixed with target protein and buffer to a concentration of 15 uM Protein and 25×SYPRO Orange. 2 ul of this protein-dye-mixture was added to 8 ul compound solution. Final volume was 10 uL. 3-6 well positions were used as negative control (protein with 2% DMSO). The plates were prepared for duplicate measurement and centrifuged for 2 min at 1000 g. In the measurement, 160 cycles of 0.5° C. were used (temperature ramp 15 s/cycle, 15° C. to 95° C.).
Final Assay concentrations for compound characterization were as follows: 100 uM compound, 3 uM target protein, 5×SYPRO Orange, 2% DMSO in 10 ul. All dispensing steps were performed using a HamiltonStar pipetting robot (Hamilton).
Dissociation curves were processed in Bio-Rad CFX Manager. Peak type was set to “negative”. Compound codes for screen were assigned in the plate layout.
Two replicates of TM measurements were averaged, and the standard deviation was calculated. In cases of SD>1.5° C. the measurement was repeated.
The melting point (Tm) obtained for STING protein alone was subtracted from T obtained for protein incubated with ligand to generate ΔTm values.
Protein production and purification: The protein used for the biophysical experiments was a recombinant human STING protein comprising its cytosolic ectodomain. A codon optimized DNA sequence (for expression in Escherichia coli) encoding amino acid residues 155 to 341 (Swiss Prot Q86WV6) of human STING (WT) was synthesized by GeneArt (Regensburg, Germany) and inserted into a pET17b E. coli expression vector. The protein construct encodes an N-terminal 8×His-tag (SEQ ID NO: 3) followed by tobacco etch virus protease (TEV) cleavage site and the above STING gene sequence. The resulting protein sequence for the used STING variant is listed below:
For expression of recombinant human STING above construct was transformed into E. coli BL21 DE3 strain and grown in shake flasks in LB-medium at 37° C. Expression was induced by addition of isopropyl β-D-1-thiogalactopyranoside to a final concentration of 1 mM and cultures shaken overnight. Cell pellets were centrifuged and stored at −70° C. until further use. Protein was purified by cell thawing in lysis buffer (20 mM TRIS-HCl, pH 8, 300 mM NaCl, 2 mM mercaptoethanol, 20 mM imidazole, Complete Protease Inhibitor (Roche) and DNase (Roche)), followed by metal affinity purification using Ni-NTA resins and elution buffer consisting of 20 mM TRIS-HCl, pH 8, 300 mM NaCl, 2 mM mercaptoethanol, 300 mM imidazole and size exclusion chromatography in running buffer (20 mM TRIS-HCl, pH 8, 100 mM NaCl, 2 mM DTT). The peak fraction was collected and concentrated to 2.5 mg/mL.

T1 sequence (Q86WV6 with tags, fused parts or gaps H232R): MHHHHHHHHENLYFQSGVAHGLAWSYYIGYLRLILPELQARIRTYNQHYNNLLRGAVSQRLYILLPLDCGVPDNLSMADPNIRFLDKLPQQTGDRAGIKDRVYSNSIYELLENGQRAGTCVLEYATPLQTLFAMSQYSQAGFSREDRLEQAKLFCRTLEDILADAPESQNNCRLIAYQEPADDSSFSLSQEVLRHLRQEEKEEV

| DSF [K] | SMILES |
| --- | --- |
| 25 | Cc1c(C(C)C)c(-c2cccc3nn(C[C@H](O)c4ccccc4)cc23)nn1-c1cc2cn(C)nc2nc1OC(C)C [Example 23, (1R)-2-(4-{5-methyl-1-[2-methyl-6-(propan-2-yloxy)-2H-pyrazolo[3,4-b]pyridin-5-yl]-4-(propan-2-yl)-1H-pyrazol-3-yl}-2H-indazol-2-yl)-1-phenylethan-1-ol] |
| 30 | Cc1nc2nn(Cc3cnn(C)c3)cc2cc1-n1nc(-c2cccc3nn(C[C@H](O)c4ccccc4)cc23)c(C(C)C)c1C [Example 24, (1R)-2-[4-(5-methyl-1-{6-methyl-2-[(1-methyl-1H-pyrazol-4-yl)methyl]-2H-pyrazolo[3,4-b]pyridin-5-yl}-4-(propan-2-yl)-1H-pyrazol-3-yl)-2H-indazol-2-yl]-1-phenylethan-1-ol] |
| 30 | Cc1ccc([C@@H](O)Cn2cc3c(-c4nc(-c5cc6cn(C)nc6nc5C(C)C)n(C)c4C4CC4)cccc3n2)cc1 [Example 25, (1R)-2-(4-{5-cyclopropyl-1-methyl-2-[2-methyl-6-(propan-2-yl)-2H-pyrazolo[3,4-b]pyridin-5-yl]-1H-imidazol-4-yl}-2H-indazol-2-yl)-1-(4-methylphenyl)ethan-1-ol] |
| 26 | Cc1c(C(C)C)c(-c2cccc3nn(C[C@H](O)c4ccccc4)cc23)nn1-c1cc2cn(C)nc2nc1CN1CCOCC1 [Example 26, (1R)-2-[4-(5-methyl-1-{2-methyl-6-[(morpholin-4-yl)methyl]-2H-pyrazolo[3,4-b]pyridin-5-yl}-4-(propan-2-yl)-1H-pyrazol-3-yl)-2H-indazol-2-yl]-1-phenylethan-1-ol] |
| 25 | Cc1nc2nn(C)cc2cc1-n1nc(-c2cccc3nn(C[C@H](OCF)c4ccccc4)cc23)c(C(C)C)c1C [Example 27, 4-(1-{2,6-dimethyl-2H-pyrazolo[3,4-b]pyridin-5-yl}-5-methyl-4-(propan-2-yl)-1H-pyrazol-3-yl)-2-[(2R)-2-(fluoromethoxy)-2-phenylethyl]-2H-indazole] |
| 31 | Cn1c(-c2cc3cn(CCCN4CCCC4=O)nc3nc2C2CC2)nc(-c2cccc3nn(C[C@H](O)c4ccccc4)cc23)c1C1CC1 [Example 28, 1-{3-[6-cyclopropyl-5-(5-cyclopropyl-4-{2-[(2R)-2-hydroxy-2-phenylethyl]-2H-indazol-4-yl}-1-methyl-1H-imidazol-2-yl)-2H-pyrazolo[3,4-b]pyridin-2-yl]propyl}pyrrolidin-2-one] |
| 29 | Cc1c(C2CC2)c(-c2cccc3nn(C[C@H](O)c4ccccc4)cc23)nn1-c1cc2cn(C)nc2nc1C1CC1 [Example 29, (1R)-2-[4-(4-cyclopropyl-1-{6-cyclopropyl-2-methyl-2H-pyrazolo[3,4-b]pyridin-5-yl}-5-methyl-1H-pyrazol-3-yl)-2H-indazol-2-yl]-1-phenylethan-1-ol] |
| 25 | CCO[C@@H](Cn1cc2c(-c3nn(-c4cc5cn(C)nc5nc4C)c(C)c3C(C)C)cccc2n1)c1ccccc1 [Example 30, 4-(1-{2,6-dimethyl-2H-pyrazolo[3,4-b]pyridin-5-yl}-5-methyl-4-(propan-2-yl)-1H-pyrazol-3-yl)-2-[(2R)-2-ethoxy-2-phenylethyl]-2H-indazole] |
| 28 | Cc1nc2nn(CCCO)cc2cc1-n1nc(-c2cccc3nn(C[C@H](O)c4ccccc4)cc23)c(C(C)C)c1C [Example 32, 3-[5-(3-{2-[(2R)-2-hydroxy-2-phenylethyl]-2H-indazol-4-yl}-5-methyl-4-(propan-2-yl)-1H-pyrazol-1-yl)-6-methyl-2H-pyrazolo[3,4-b]pyridin-2-yl]propan-1-ol] |
| 31 | CC(C)n1cc2cc(-c3nc(-c4cccc5nn(C[C@H](O)c6ccccc6)cc45)c(C4CC4)n3C)c(C3CC3)nc2n1 [Example 33, (1R)-2-(4-{5-cyclopropyl-2-[6-cyclopropyl-2-(propan-2-yl)-2H-pyrazolo[3,4-b]pyridin-5-yl]-1-methyl-1H-imidazol-4-yl}-2H-indazol-2-yl)-1-phenylethan-1-ol] |
| 29 | Cn1cc2cc(-c3nc(-c4cccc5nn(C[C@H](O)c6ccccc6)cc45)c(C4CC4)n3C)c(OC(F)F)cc2n1 [Example 34, (1R)-2-(4-{5-cyclopropyl-2-[6-(difluoromethoxy)-2-methyl-2H-indazol-5-yl]-1-methyl-1H-imidazol-4-yl}-2H-indazol-2-yl)-1-phenylethan-1-ol] |
| 29 | Cc1c(C2CC2)c(-c2c(F)ccc3nn(C[C@H](O)c4ccccc4)cc23)nn1-c1cc2cn(C)nc2nc1C1CC1 [Example 35, (1R)-2-[4-(4-cyclopropyl-1-{6-cyclopropyl-2-methyl-2H-pyrazolo[3,4-b]pyridin-5-yl}-5-methyl-1H-pyrazol-3-yl)-5-fluoro-2H-indazol-2-yl]-1-phenylethan-1-ol] |
| 24 | CNC(=O)CO[C@@H](Cn1cc2c(-c3nn(-c4cc5cn(C)nc5nc4C)c(C)c3C(C)C)cccc2n1)c1ccccc1 [Example 36, 2-[(1R)-2-[4-(1-{2,6-dimethyl-2H-pyrazolo[3,4-b]pyridin-5-yl)-5-methyl-4-(propan-2-yl)-1H-pyrazol-3-yl)-2H-indazol-2-yl]-1-phenylethoxy]-N-methylacetamide] |
| 27 | Cc1nc2nn(CCO)cc2cc1-n1nc(-c2cccc3nn(C[C@H](O)c4ccccc4)cc23)c(C(C)C)c1C [Example 37, (1R)-2-(4-{1-[2-(2-hydroxyethyl)-6-methyl-2H-pyrazolo[3,4-b]pyridin-5-yl]-5-methyl-4-(propan-2-yl)-1H-pyrazol-3-yl}-2H-indazol-2-yl)-1-phenylethan-1-ol] |
| 25 | Cc1nc2nn(CCN(C)C)cc2cc1-n1nc(-c2cccc3nn(C[C@H](O)c4ccccc4)cc23)c(C(C)C)c1C [Example 39, (1R)-2-[4-(1-{2-[2-(dimethylamino)ethyl]-6-methyl-2H-pyrazolo[3,4-b]pyridin-5-yl}-5-methyl-4-(propan-2-yl)-1H-pyrazol-3-yl)-2H-indazol-2-yl]-1-phenylethan-1-ol] |
| 27 | Cc1nc2nn(CCCN3CCC(F)(F)C3)cc2cc1-n1nc(-c2cccc3nn(C[C@H](O)c4ccccc4)cc23)c(C(C)C)c1C [Example 40, (1R)-2-[4-(1-{2-[3-(3,3-difluoropyrrolidin-1-yl)propyl]-6-methyl-2H-pyrazolo[3,4-b]pyridin-5-yl}-5-methyl-4-(propan-2-yl)-1H-pyrazol-3-yl)-2H-indazol-2-yl]-1-phenylethan-1-ol] |
| 30 | Cn1cc2cc(-c3nc(-c4cccc5nn(C[C@H](O)c6ccc(OCCC(C)(C)O)cc6)cc45)c(C4CC4)n3C)c(C3CC3)nc2n1 [Example 41, 4-{4-[(1R)-2-[4-(5-cyclopropyl-2-{6-cyclopropyl-2-methyl-2H-pyrazolo[3,4-b]pyridin-5-yl}-1-methyl-1H-imidazol-4-yl)-2H-indazol-2-yl]-1-hydroxyethyl]phenoxy}-2-methylbutan-2-ol] |
| 26 | CNCc1nc2nn(C)cc2cc1-n1nc(-c2cccc3nn(C[C@H](O)c4ccccc4)cc23)c(C(C)C)c1C [Example 42, (1R)-2-[4-(5-methyl-1-{2-methyl-6-[(methylamino)methyl]-2H-pyrazolo[3,4-b]pyridin-5-yl}-4-(propan-2-yl)-1H-pyrazol-3-yl)-2H-indazol-2-yl]-1-phenylethan-1-ol] |
